Test in all cases: Minimum inhibitory concentration (MIC90)
Common to all, as to assay type: cell-based

Assay [1] concerns S. epidermidis/methicillin sensitive. The source says:
(§1) The concentrations of the antibiotics of formula (I) in the compositions of the present invention will vary depending on the intended use of the compositions (e.g., treatment of existing infections or prevention of post-surgical infections), and the relative antimicrobial activity of the specific antibiotic selected. The antimicrobial activity of antibiotics is generally expressed as the minimum concentration required to inhibit the growth of a specified pathogen. This concentration is also referred to as the “minimum inhibitory concentration” or “MIC”. The term “MIC90” refers to the minimum concentration of antibiotic required to inhibit the growth of ninety percent (90%) of the strains of a species. The concentration of an antibiotic required to totally kill a specified bacteria is referred to as the “minimum bactericidal concentration” or “MBC”. The minimum inhibitory concentration of Trovafloxacin for several bacteria commonly associated with ophthalmic, otic and nasal infections are provided in the following table: […]

The subject of assay [2] is P. aeruginosa.
Source text: as §1

The subject of assay [3] is S. aureus/quinolone resistant.
Source text: as §1

For assay [4], the system named is S. pneumoniae/penicillin sensitive.
Source text: as §1

For assay [5], the system named is S. epidermidis/methicillin resistant.
Source text: as §1

The subject of assay [6] is H. influenzae/βlactamase negative.
Source text: as §1

Assay [7] relates to S. aureus/methicillin resistant.
Source text: as §1

In assay [8] the test system is H. influenzae/β-lactamase positive.
Source text: as §1

The test system of assay [9] is S. aureus/methicillin sensitive.
Source text: as §1

Assay [10] deals with S. pneumoniae/penicillin resistant.
Source text: as §1

Structures are written as SMILES. Converted amounts (≈) assume the structure as drawn.

As for `N[C@@H]1[C@H]2CN(c3nc4c(cc3F)c(=O)c(C(=O)O)cn4-c3ccc(F)cc3F)C[C@@H]12` [Trovafloxacin], the MIC90 in [1] stood at 0.06 µg/mL (≈ 0.144 µM); in assay [2], 2.0 µg/mL (≈ 4.8 µM); in [3] it was 4.0 µg/mL (≈ 9.61 µM); in assay [4], 0.25 µg/mL (≈ 0.6 µM); in assay [5], 4.0 µg/mL (≈ 9.61 µM); in assay [6], 0.03 µg/mL (≈ 0.0721 µM). Moreover, the MIC90 in assay [7] is 2.0 µg/mL (≈ 4.8 µM); in [8] it was 0.03 µg/mL (≈ 0.0721 µM); in [9] it was 0.03 µg/mL (≈ 0.0721 µM); in [10], 0.25 µg/mL (≈ 0.6 µM).

The values are drawn from patent US6395746B1, “Methods of treating ophthalmic, otic and nasal infections and attendant inflammation” (Alcon Manufacturing, Ltd., priority 1998, dated 2002).
